In BindingDB's records for doi:10.1021/jm00039a025 (Wellcome Research Laboratories, 1994):

Assay: Ability to inhibit glycinamide ribonucleotide transformylase (GAR-Tfase) in vitro, using hog liver with (6R)-10-formyl-FH4 as cofactor

Compound | IC50
Nc1nc(N)c(CCCNc2ccc(C(=O)N[C@H](CCC(=O)O)C(=O)O)s2)c(=O)[nH]1 [(S)-2-({5-[3-(2,4-Diamino-6-oxo-1,6-dihydro-pyrimidin-5-yl)-propylamino]-thiophene-2-carbonyl}-amino)-pentanedioic acid] | 2060 nM
Nc1nc(N)c(CCCNc2cnc(C(=O)N[C@H](CCC(=O)O)C(=O)O)s2)c(=O)[nH]1 [(S)-2-({5-[3-(2,4-Diamino-6-oxo-1,6-dihydro-pyrimidin-5-yl)-propylamino]-thiazole-2-carbonyl}-amino)-pentanedioic acid] | 140 nM
